This test concerns the target T1, PDZ2 domain of human tyrosine phosphatase 1E (hPTP1E) (Homo sapiens, UniProt Q12923).
T1 construct: the PDZ2 domain of human tyrosine phosphatase 1E (hPTP1E); polyhistidine (N); made in house; host or cells: Escherichia coli BL21 (DE3)
T1 sequence (Q12923 1368-1452 limits assumed): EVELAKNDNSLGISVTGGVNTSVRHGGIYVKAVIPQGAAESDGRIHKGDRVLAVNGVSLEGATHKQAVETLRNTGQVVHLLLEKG
Nature of the test: [15N,1H]-HSQC chemical shift perturbation / titration of peptides with PDZ2 domain. The format is binding. The following applies: [15N,1H]-HSQC-based titration series, calculated by Titan. The text has this: To establish a proof of concept, we decided to design and study peptides that bind to the PDZ2 domain of human tyrosine phosphatase comprising a tryptophane at the N-terminus of the peptides for detection by photo-CIDNP since tryptophane is known to be well polarized in the presence of fluorescein.[10],[25] The positive and negative control peptides (i.e., WVSAV and WEKLQT, respectively) were then checked in their binding capacity using [^15N,^1H]-HSQC experiments (Figure 2A,C).
Figure 2 Peptide binding studies of peptides to the PDZ2 domain of the human tyrosine phosphatase by standard chemical shift perturbation 2D NMR experiments and photo-CIDNP 1D ^1H NMR. (A) and (C) 2D [^15N,^1H]-HSQC spectra of the ^15N-labeled PDZ2 domain in the absence (black) and presence (green) of the peptide WVSAV (A) or WEKLQT (C), the experiments were recorded each within ca. 30 min. Photo-CIDNP ^1H 1D NMR spectra of the tryptophane aromatic resonances of (B) WVSAV and (D) WEKLQT in the absence (black lines) and presence (green lines) of the PDZ2 domain of the human tyrosine phosphatase, the experiments were recorded each within ca. 5 s. All of the 1D NMR spectra are single-scan experiments and were recorded with 100 μM peptide, ±100 μM PDZ2 domain at 298 K. The hyperpolarization was triggered by 4 s of light irradiation (450 nm, 1 W) in the presence of 25 μM fluorescein in photo-CIDNP buffer. […]

The structures appear in SMILES notation. Where a SMILES comes first, the peptide text is derived from it.

The Kd is a measure of binding affinity in units of concentration.

As for `CC(C)[C@H](NC(=O)[C@H](C)NC(=O)[C@H](CO)NC(=O)[C@@H](NC(=O)[C@@H](N)Cc1c[nH]c2ccccc12)C(C)C)C(=O)O` [WVSAV] (H-WVSAV-OH), the dissociation constant (Kd) was 111 ± 3.3 µM.

Source of the values: PMC10251509, “Ultrafast Fragment Screening Using Photo-Hyperpolarized (CIDNP) NMR” (Journal of the American Chemical Society, 2023).
